Among the data in ChEMBL document CHEMBL1135768, “Design, synthesis, and SAR of tachykinin antagonists: modulation of balance in NK(1)/NK(2) receptor antagonist activity” (J Med Chem, 2002) are pKB values, retold here.

Assay [1] concerns Substance-P receptor (Oryctolagus cuniculus). Briefly: Tested for the binding affinity towards tachykinin receptor 1 (NK1) in rabbit pulmonary artery tissue.
Assay [2] has as its target T1, Substance-K receptor (Oryctolagus cuniculus) (UniProt P79218).
T1 sequence (whole entry): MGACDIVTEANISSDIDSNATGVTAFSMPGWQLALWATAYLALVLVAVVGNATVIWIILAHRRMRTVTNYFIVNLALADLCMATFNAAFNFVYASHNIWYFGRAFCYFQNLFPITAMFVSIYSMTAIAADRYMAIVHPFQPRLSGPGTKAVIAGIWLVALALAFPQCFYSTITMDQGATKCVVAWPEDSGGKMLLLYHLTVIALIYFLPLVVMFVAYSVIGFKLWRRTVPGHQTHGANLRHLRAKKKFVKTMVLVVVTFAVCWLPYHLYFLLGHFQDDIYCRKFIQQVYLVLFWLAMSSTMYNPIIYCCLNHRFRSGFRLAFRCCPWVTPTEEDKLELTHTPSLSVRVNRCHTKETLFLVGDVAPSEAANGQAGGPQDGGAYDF
Briefly: Tested for the binding affinity towards tachykinin receptor 2 (NK2) in rabbit pulmonary artery tissue.

A word on the pKB: it is the negative decadic logarithm of the KB, by convention in mol/L. A higher pKB goes with a small KB. Consider `CN(C[C@@H](CCN1CCC(N2CCCNC2=O)CC1)c1ccc(Cl)c(Cl)c1)C(=O)c1cc(C#N)cc2ccccc12`, for which the pKB came to 8.18 in assay [1] and 7.86 in assay [2].
`CN(C[C@@H](CCN1CCC(c2ccc([S+](C)[O-])cc2[S+](C)[O-])CC1)c1ccc(Cl)c(Cl)c1)C(=O)c1cc(C#N)cc2ccccc12` (mixture of isomers): the figures for the negative-log KB (pKB) in assay [1] and in assay [2] were 7.33 and 8.27, respectively.
For `CN(C[C@@H](CCN1CCC(c2ccc(O)cc2[S+](C)[O-])CC1)c1ccc(Cl)c(Cl)c1)C(=O)c1cc(C#N)cc2ccccc12` (mixture of isomers), in that order: 8.93 and 8.34.
As for `CNC(=O)C1(N2CCCNC2=O)CCN(CC[C@H](CN(C)C(=O)c2c(OC)c(C#N)cc3ccccc23)c2ccc(Cl)c(Cl)c2)CC1`, the pKB in assay [1] worked out at 8.14; in assay [2], 8.11.
The matching figures for `CN(C[C@@H](CCN1CCC(c2ccc(C(N)=O)cc2[S+](C)[O-])CC1)c1ccc(Cl)c(Cl)c1)C(=O)c1cc(C#N)cc2ccccc12` (mixture of isomers): 8.53 and 6.92.
With `CN(C[C@@H](CCN1CCC(c2ccccc2[S@+](C)[O-])CC1)c1ccc(Cl)c(Cl)c1)C(=O)c1cc(C#N)cc2cc(O)ccc12`, the pKB is 8.02 in assay [1] and 7.31 in assay [2].
In the case of `CNC(=O)C1(N2CCOCC2=O)CCN(CC[C@H](CN(C)C(=O)c2c(OC)c(C#N)cc3ccccc23)c2ccc(Cl)c(Cl)c2)CC1`, the negative logarithm of the KB (pKB) in assay [1] is 8.55; in assay [2] it was 7.79.
Take `COc1c(C#N)cc2ccccc2c1C(=O)N(C)C[C@@H](CCN1CCC(C(=O)N(C)C)(N2CCCCC2=O)CC1)c1ccc(Cl)c(Cl)c1`: the pKB stood at 7.88 in assay [1] and 7.7 in assay [2].
For `Cc1c(C#N)cc(C(=O)N(C)C[C@@H](CCN2CCC(c3ccccc3[S@+](C)[O-])CC2)c2ccc(Cl)c(Cl)c2)c2ccccc12`, the pKB was found to be 8.53 in assay [1] and 7.8 in assay [2].
Consider `CN(C[C@@H](CCN1CCC(c2ccccc2[S@+](C)[O-])CC1)c1ccc(Cl)c(Cl)c1)C(=O)c1cc(C#N)c(F)c2ccccc12`, for which the pKB amounted to 6.75 in assay [1] and 6.2 in assay [2].
Take `CN(C[C@@H](CCN1CCC(c2ccccc2[S@+](C)[O-])CC1)c1ccc(Cl)c(Cl)c1)C(=O)c1cc(C#N)c(C#N)c2ccccc12`: the results for the pKB in assay [1] and in assay [2] were 7.76 and 7.65, respectively.
Regarding `CN(C)C(=O)C1(N2CCCCC2=O)CCN(CC[C@H](CN(C)C(=O)c2cc(C#N)cc3ccccc23)c2ccc(Cl)c(Cl)c2)CC1`, the pKB in assay [1] stood at 7.36; in assay [2] it was 8.52.
For `CN(C[C@@H](CCN1CCC(c2c(F)cccc2[S+](C)[O-])CC1)c1ccc(Cl)c(Cl)c1)C(=O)c1cc(C#N)cc2ccccc12` (some centres not stated), in that order: 7.25 and 6.83.
`CN(C[C@@H](CCN1CCC(c2cc(F)ccc2[S+](C)[O-])CC1)c1ccc(Cl)c(Cl)c1)C(=O)c1cc(C#N)cc2ccccc12` (mixture of isomers): the figures for the pKB in assay [1] and in assay [2] were 8.26 and 8.34, respectively.
As to `CN(C[C@@H](CCN1CCC(c2ccccc2[S@+](C)[O-])CC1)c1ccc(Cl)c(Cl)c1)C(=O)c1cc(C#N)c(Br)c2ccccc12`, the pKB in assay [1] came out at 7.78; in assay [2] it was 6.99.
As to `CNC(=O)C1(N2CCCNC2=O)CCN(CC[C@H](CN(C)C(=O)c2cc(C#N)cc3ccccc23)c2ccc(Cl)c(Cl)c2)CC1`, the pKB amounted to 7.6 in assay [1] and 8.22 in assay [2].
Regarding `COc1ccc2c(C(=O)N(C)C[C@@H](CCN3CCC(c4ccccc4[S@+](C)[O-])CC3)c3ccc(Cl)c(Cl)c3)cc(C#N)cc2c1`, the pKB came to 7 in assay [1] and 7.97 in assay [2].
`CN(C[C@@H](CCN1CCC(c2cc(Br)ccc2[S+](C)[O-])CC1)c1ccc(Cl)c(Cl)c1)C(=O)c1cc(C#N)cc2ccccc12` (mixture of isomers): the pKB was 8.46 in assay [1] and 8.55 in assay [2].
For `CN(C[C@@H](CCN1CCC(c2ccccc2[S+](C)[O-])CC1)c1ccc(Cl)c(Cl)c1)C(=O)c1cc(C#N)cc2ccccc12` (mixture of isomers), in assay [2], the pKB came out at 8.48.
